Like-named read-outs stand apart in the source and are kept apart here.
Legend:
Assay type in all cases: biochemical
[1] = target: PIM2 (Homo sapiens, UniProt Q9P1W9); assay: PIM2 33P kinase assay; conditions: read-out: PIM2 activity as percentage of control without inhibitor
Description: (§1) All assays (25.5 μl) were carried out at room temperature (21° C.) and were linear with respect to time and enzyme concentrations under the conditions used. Assays were performed for 30 minutes except assays for LCK and PKB which were performed for 15 minutes using Multidrop Micro reagent dispensers (Thermo Electron Corporation, Waltham, Mass. 02454, USA) in a 96-well format. The concentration of […] [γ-^33P] ATP (800 cpm/pmol) in the assays was one of three concentrations (5, 20 or 50 μM) in order to be at or below Km for ATP for the enzyme. Assays were initiated with MgATP and stopped by addition of 5 μl of 0.5M orthophosphoric acid. Assays were then harvested onto P81 filterplates using a unifilter harvester (PerkinElmer, Boston, Mass. 02118, USA), with a wash buffer of 50 mM orthophosphoric acid. Filterplates were then air dried overnight. 10 μl of Microscint O was added per well prior to counting for radioactivity.
(§2) The following kinases were assayed against the substrates indicated. Aurora B was assayed against the substrate peptide […] (300 μM), ERK8 and MST-2 were both assayed against MBP (0.33 mg/ml). IKKβ was assayed against the substrate peptide […] (300 μM), JNK3 was assayed against 3 μM ATF2[19-96]. MAPKAP-K3 and PKD1 were both assayed against […] (30 μM), MARK3 was assayed against CHKtide ([…]) substrate peptide (300 μM). MNK1 and MNK2 were both assayed against eIF4E protein (0.5 mg/ml). NEK7 was assayed against […] (300 μM), PIM2 was assayed against […] (300 μM), ΔPH PKBβ-S474D was assayed against Crosstide (30 μM), PLK1 was assayed against […] (300 μM). PRK2 was assayed against Long S6 peptide, […] (30 μM), RSK2 was assayed against […] (30 μM), SRC was assayed against cdc2 peptide, […], (300 μM) and SRPK1 was assayed against peptide […] (300 μM). All enzymes were diluted in 50 mM Tris/HCl pH 7.5, 0.1 mM EGTA, 1 mg/ml BSA, 0.1% β-mercaptoethanol buffer and assayed in an incubation containing 50 mM Tris/HCl pH7.5, 0.1 mM EGTA, 0.1% β-mercaptoethanol, CAMK-1 (5-20 mU) diluted in 50 mM Tris/HCl pH 7.5, 0.1 mM EGTA, 1 mg/ml BSA, 0.1% β-mercaptoethanol is assayed against substrate peptide […] in an incubation containing 50 mM Tris/HCl pH 7.5, 0.1 mM EGTA, 0.5 mM CaCl2, 0.3 μM calmodulin, 0.1% β-mereaptoethanol, 300 μM substrate peptide, 10 mM magnesium acetate and 0.05 mM [^33P-γ-ATP] (500-1000 cpm/pmole). EF2K (5-20 mU) diluted in 50 mM Hepes pH 6.6, 0.1% β-mercaptoethanol, 1 mg/ml BSA is assayed against a substrate peptide […] in an incubation containing 50 mM Hepes pH 6.6, 0.2 mM CaCl2, 0.3 μM Calmodulin, 0.05% b-mercaptoethanol, 300 μM substrate peptide, 10 mM magnesium acetate and 0.05 mM [^33P-γ-ATP] (500-1000 cpm/pmole).

[2] = target: PRK2 (Homo sapiens, UniProt Q16513); assay: PRK2 33P kinase assay; conditions: read-out: PRK2 activity as percentage of control without inhibitor
PRK2, sequence (Q16513 whole entry, species assumed): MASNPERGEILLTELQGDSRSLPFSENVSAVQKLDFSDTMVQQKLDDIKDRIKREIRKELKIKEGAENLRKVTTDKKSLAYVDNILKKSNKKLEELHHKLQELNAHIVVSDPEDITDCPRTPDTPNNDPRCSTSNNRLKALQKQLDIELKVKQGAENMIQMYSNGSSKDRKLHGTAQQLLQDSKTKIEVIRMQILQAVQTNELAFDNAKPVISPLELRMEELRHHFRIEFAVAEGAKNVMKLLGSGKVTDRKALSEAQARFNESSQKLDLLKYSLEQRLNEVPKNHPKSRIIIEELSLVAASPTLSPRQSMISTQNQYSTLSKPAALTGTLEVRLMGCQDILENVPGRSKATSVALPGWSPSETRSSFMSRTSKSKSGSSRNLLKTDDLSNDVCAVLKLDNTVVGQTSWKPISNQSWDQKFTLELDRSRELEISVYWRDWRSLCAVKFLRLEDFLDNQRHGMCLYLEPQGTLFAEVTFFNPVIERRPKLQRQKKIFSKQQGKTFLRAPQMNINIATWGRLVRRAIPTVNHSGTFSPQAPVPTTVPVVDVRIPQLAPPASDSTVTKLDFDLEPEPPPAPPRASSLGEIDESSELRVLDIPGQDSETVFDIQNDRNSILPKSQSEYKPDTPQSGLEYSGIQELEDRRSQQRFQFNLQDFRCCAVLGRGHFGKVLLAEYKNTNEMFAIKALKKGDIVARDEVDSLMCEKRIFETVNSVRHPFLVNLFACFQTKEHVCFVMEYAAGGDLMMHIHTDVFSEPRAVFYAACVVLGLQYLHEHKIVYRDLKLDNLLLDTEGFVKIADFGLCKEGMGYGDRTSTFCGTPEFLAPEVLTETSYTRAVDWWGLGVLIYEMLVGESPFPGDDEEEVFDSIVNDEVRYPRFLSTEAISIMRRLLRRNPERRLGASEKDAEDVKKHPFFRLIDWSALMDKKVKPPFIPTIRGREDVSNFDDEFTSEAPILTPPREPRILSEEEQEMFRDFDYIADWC
Description: as §1
(§3) MKK1, JNK/SAPK1c, SAPK2a/p38, SAPK2b/p38β2, SAPK3/p38γ, SAPK4/p38δ, MAPK2/ERK2, MAPKAP-K1β, MAPKAP-K2, MSK1, PRAK, PKA, PKCα, PDK1, SGK, p70S6K, GSK3β, ROCK-II, PRK2, AMPK, CHK1, CHK2, CK2, PHK, LCK, were assayed according to Davies et al., (Davies, S. P., Reddy, H., Caivano, M. and Cohen, P. Biochem. J. 351, 95-105, 2000.
(§4) CSK and CDK2/cyclinA, were assayed according to Bain et al. (Bain J, McLauchlan H, Elliott M, Cohen P. Biochem J. 371, 199-204, 2003., except that ATP concentrations were either 5, 20 or 50 micromolar so that they were at or below the Km for ATP. The ATP concentrations used were as follows, 5 μM for assays of MKK1, SAPK3, SAPK4, GSK3β, PRK2 CK2 20 μm for assays of JNK, SAPK2β, MAPKAP-K2, MSK1, PRAK, PKA, […], PDK1, SGK, p70S6K, ROCK-II, CHK1, CHK2, CSK, CDK2, and 50 μM for assays of SAPK2a, MAPK2/ERK2, AMPK, LCK, PHK and MAPKAP-K1β.
as §2

[3] = target: T1, PDK1 (Homo sapiens, UniProt O15530); assay: PDK1 33P kinase assay; conditions: for remaining activity at 1 µM: inhibitor 1 μM, read-out: PDKI activity as percentage of control without inhibitor; for remaining activity at 10 µM: inhibitor 10 μM, read-out: PDK1 activity as percentage of control without inhibitor
T1 sequence (O15530 1-556): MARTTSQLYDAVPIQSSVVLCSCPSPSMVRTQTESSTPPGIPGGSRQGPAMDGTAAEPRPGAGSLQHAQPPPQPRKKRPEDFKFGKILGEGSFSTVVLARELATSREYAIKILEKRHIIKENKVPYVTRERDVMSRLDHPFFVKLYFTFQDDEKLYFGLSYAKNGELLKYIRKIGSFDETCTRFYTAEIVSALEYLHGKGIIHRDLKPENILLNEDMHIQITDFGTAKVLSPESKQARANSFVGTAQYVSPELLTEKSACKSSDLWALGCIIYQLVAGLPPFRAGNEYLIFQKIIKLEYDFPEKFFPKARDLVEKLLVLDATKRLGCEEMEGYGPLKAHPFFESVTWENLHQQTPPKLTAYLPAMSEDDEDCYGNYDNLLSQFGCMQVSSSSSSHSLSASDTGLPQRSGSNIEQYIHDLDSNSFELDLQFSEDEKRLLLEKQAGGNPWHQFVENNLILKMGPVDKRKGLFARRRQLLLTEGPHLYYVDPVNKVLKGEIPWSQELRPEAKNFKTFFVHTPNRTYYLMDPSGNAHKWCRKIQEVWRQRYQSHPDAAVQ
Description: as §1, §3, §4

[4] = target: CDK2/cyclin A (Homo sapiens, UniProt P24941); assay: CDK2/cyclin A 33P kinase assay; conditions: read-out: CDK2/cyclin A activity as percentage of control without inhibitor
Description: as §1, §4

[5] = target: CSK (Homo sapiens, UniProt P41240); assay: CSK 33P kinase assay; conditions: read-out: CSK activity as percentage of control without inhibitor
CSK, sequence (P41240 whole entry, species assumed): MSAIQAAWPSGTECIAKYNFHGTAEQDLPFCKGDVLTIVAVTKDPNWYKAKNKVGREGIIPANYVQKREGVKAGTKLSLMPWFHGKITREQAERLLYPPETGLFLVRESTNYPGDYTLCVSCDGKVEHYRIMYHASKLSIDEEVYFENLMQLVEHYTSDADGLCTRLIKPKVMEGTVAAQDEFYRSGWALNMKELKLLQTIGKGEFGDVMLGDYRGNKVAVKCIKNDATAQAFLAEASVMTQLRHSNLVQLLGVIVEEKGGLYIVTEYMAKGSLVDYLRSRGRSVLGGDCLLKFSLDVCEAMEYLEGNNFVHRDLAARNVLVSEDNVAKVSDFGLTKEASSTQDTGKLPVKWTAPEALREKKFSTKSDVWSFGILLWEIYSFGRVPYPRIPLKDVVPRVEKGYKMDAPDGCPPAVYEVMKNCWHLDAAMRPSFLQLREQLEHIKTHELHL
Description: as §1, §4

PIM2, sequence (Q9P1W9 whole entry, species assumed): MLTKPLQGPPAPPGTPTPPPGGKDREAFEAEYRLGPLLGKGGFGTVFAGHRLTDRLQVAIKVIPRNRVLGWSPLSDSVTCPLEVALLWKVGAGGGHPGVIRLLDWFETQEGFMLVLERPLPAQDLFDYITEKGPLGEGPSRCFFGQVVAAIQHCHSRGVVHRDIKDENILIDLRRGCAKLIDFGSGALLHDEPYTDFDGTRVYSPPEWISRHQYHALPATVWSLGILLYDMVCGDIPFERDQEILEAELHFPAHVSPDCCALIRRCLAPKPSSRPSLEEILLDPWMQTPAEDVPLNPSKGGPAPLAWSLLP

## COc1ccc2c3c([nH]c2c1)C(C)=NCC3 [Harmaline]
[1]; inhibitor 1 μM
  remaining activity at 1 µM: 86%
[1]; inhibitor 10 μM
  remaining activity at 10 µM: 101%
[2]; inhibitor 1 μM
  remaining activity at 1 µM: 97%
[2]; inhibitor 10 μM
  remaining activity at 10 µM: 83%
[3]
  remaining activity at 1 µM: 100%
  remaining activity at 10 µM: 95%
[4]
  remaining activity at 1 µM: 99%
  remaining activity at 10 µM: 98%
[5]
  remaining activity at 1 µM: 64%
  remaining activity at 10 µM: 90%

## CC1=NCCc2c1[nH]c1cc(O)ccc21 [Harmalol]
[1]; inhibitor 1 μM
  remaining activity at 1 µM: 90%
[1]; inhibitor 10 μM
  remaining activity at 10 µM: 57%
[2]; inhibitor 1 μM
  remaining activity at 1 µM: 86%
[2]; inhibitor 10 μM
  remaining activity at 10 µM: 54%
[3]
  remaining activity at 1 µM: 88%
  remaining activity at 10 µM: 96%
[4]; inhibitor 1 μM
  remaining activity at 1 µM: 97%
[4]; inhibitor 10 μM
  remaining activity at 10 µM: 77%
[5]; inhibitor 1 μM
  remaining activity at 1 µM: 110%
[5]; inhibitor 10 μM
  remaining activity at 10 µM: 92%

## COc1ccc2c(c1)[nH]c1c(C)nccc12 [Harmine]
[1]
  remaining activity at 1 µM: 77%
  remaining activity at 10 µM: 41%
[2]
  remaining activity at 1 µM: 82%
  remaining activity at 10 µM: 45%
[3]
  remaining activity at 1 µM: 89%
  remaining activity at 10 µM: 95%
[4]
  remaining activity at 1 µM: 98%
  remaining activity at 10 µM: 62%
[5]
  remaining activity at 1 µM: 92%
  remaining activity at 10 µM: 101%

Reference: patent US20100063085A1, “METHOD OF TREATING LEARNING IMPAIRMENT IN DOWN'S SYNDROME SUBJECTS” (University Court of The University of Dundee, priority 2008, published 2010)
